According to patent US20250084178A1, “ANTI-CD39 ANTIBODIES AND USE THEREOF” (ARCUS BIOSCIENCES, INC., priority 2022, published 2025):

Legend:
CT26 and MC38 cells = experiment: Extracellular ATP release after oxaliplatin, murine colon carcinoma lines; format: cell-based; conditions: 250 μM oxaliplatin, 8 hours
Procedure: (§1) To evaluate cellular ATP release following oxaliplatin treatment, murine colon carcinoma cell lines CT26 and MC38 and human melanoma cell line SK-MEL-5 were defrosted, rinsed, and resuspended in their respective culture media. Culture media for CT26 and MC38 is RPMI+10% FBS+1% glutamax+1% penicillin-streptomycin+1% sodium pyruvate. Culture media for SK-MEL-5 is EMEM+10% FBS+1% glutamax+1% penicillin-streptomycin+1% sodium pyruvate. Cells were plated at 2.5×10^4 cells per well in a 96-well plate and incubated overnight at 37° C., 5% CO2. The following day, the cells were treated with the vehicle (PBS), 100 μM or 250 μM oxaliplatin. […] To determine cellular viability, the cells were incubated with treatments for 24 hours at 37° C., 5% CO2. At the end of the incubation period, viability was determined using luminescence-based Cell Titer Glo 2.0 assay (Promega, Cat. No. G9242). Data are presented as viability normalized to untreated vehicle controls (FIG. 19A). To determine HMGB1 release, the cells were incubated with treatment for 24 hours at 37° C., 5% CO2. At the end of the incubation period, the plates were centrifuged at 400×g for 5 minutes and supernatants were collected. HMGB1 levels in the culture supernatants were then determined using Lumit HMGB1 Kit (Promega, Cat. No. CS3030B01) following manufacturer's instructions (FIG. 19B). […]

SK-MEL-5 cells = experiment: Extracellular ATP release after oxaliplatin, SK-MEL-5 cells; format: cell-based, human; conditions: 250 μM oxaliplatin, 8 hours
Procedure: as §1

Structure (SMILES): O=C1[O][Pt]2([NH][C@@H]3CCCC[C@H]3[NH]2)[O]C1=O [oxaliplatin, reference compound]
- Extracellular ATP release (CT26 and MC38 cells): demonstrated ATP release
- Extracellular ATP release (SK-MEL-5 cells): demonstrated ATP release
